Measured values published in patent US8987274B2, “Macrocycles that increase p53 activity and the uses thereof” (Merck Sharp & Dohme Corp, priority 2011, dated 2015).
Like-named read-outs stand apart in the source and are kept apart here.

Assays:
[1] = target: HDM2 protein (Homo sapiens, UniProt Q00987); experiment: fluorescence polarization screening assay (FP IC50); format: binding; settings: first value of the cell (FP), read-out: FP/ SJSA IC50 (nM): FP IC50
Experimental: The compounds were evaluated to determine activity at the HDM2 protein by known methods such as the fluorescence polarization screening assay that measures the inhibitory concentration that achieves 50% of maximal activity (FP IC50) and the dissociation constant for inhibitor binding (FP Ki). [Zhang et al., J. Analytical Biochemistry 331: 138-146 (2004)].

[2] = test system: SJSA; experiment: Cell Viability Assay (CellTiter-Glo, ATP quantitation); format: cell-based; settings: second value of the cell (SJSA cell viability, e.g. 72 hours), read-out: FP/ SJSA IC50 (nM): SJSA IC50
Experimental: Additionally, compounds were tested for activity at the HDM2 protein using the Cell Viability Assay, which measures the number of viable cells in culture after treatment with the inventive compound for a certain period of time e.g. 72 hours based on quantitation of the ATP present (Cell Viability. IC50). [CellTiter-Glo® Luminescent Cell Viability Assay from Promega].

Chain of HDM2 protein (Q00987 whole entry): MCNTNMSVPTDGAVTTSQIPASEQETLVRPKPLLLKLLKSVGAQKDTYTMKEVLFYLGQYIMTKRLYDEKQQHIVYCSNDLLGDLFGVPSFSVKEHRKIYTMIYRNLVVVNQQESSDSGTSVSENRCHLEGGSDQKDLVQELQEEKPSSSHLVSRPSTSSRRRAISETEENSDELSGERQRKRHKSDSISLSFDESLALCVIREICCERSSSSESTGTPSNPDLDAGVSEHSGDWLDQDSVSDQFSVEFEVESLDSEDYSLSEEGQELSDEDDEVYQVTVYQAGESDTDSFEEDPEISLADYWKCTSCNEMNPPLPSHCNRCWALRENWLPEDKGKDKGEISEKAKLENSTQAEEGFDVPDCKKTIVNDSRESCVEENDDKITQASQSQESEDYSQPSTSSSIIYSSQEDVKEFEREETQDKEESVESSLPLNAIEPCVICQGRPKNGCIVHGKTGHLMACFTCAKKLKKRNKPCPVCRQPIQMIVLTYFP

IC50 ([1]; class symbol) [nM]	IC50 ([2]; class symbol) [nM]	IC50 ([1]; number) [nM]	IC50 ([2]; number) [nM]	Structure (SMILES)
1 to 100	101 to 500	–	–	O=C(O)CCCOc1ccccc1N1CCN(C(=O)[C@]2(Oc3csc(C(F)(F)F)c3)CCCN3C(=O)c4c(C(F)(F)F)ccnc4OCCC/C=C\C[C@@H]32)CC1 [Compound 8, 4-[2-[4-[[(11aR)- 7,8,11,11a,12,13,14,15- OCTAHYDRO-17-OXO-1- (TRIFLUOROMETHYL)- 12(S)-[[5- (TRIFLUOROMETHYL)-3- THIENYL]OXY]-6H,17H- DIPYRIDO[1,2-e:2′,3′-b][1,5] OXAAZACYCLODODECIN- 12-YL]CARBONYL]-1- PIPERAZINYL]PHENOXY] BUTANOIC ACID.]
1000 to 3000	–	–	–	O=C1c2c(C(F)(F)F)ccnc2OCCCC[C@H]2N1CCC[C@@]2(Oc1csc(C(F)(F)F)c1)C(=O)N1CCN(c2ccccc2OCCO)CC1 [Compound 9, 1-[2-(2- HYDROXYETHOXY) PHENYL]-4-[[(9aR)- 7,8,9,9a,10,11,12,13- OCTAHYDRO-15-OXO-1- (TRIFLUOROMETHYL)- 10(S)-[[5- (TRIFLUOROMETHYL)- 3-THIENYL]OXY]-6H,15H- DIPYRIDO[1,2-e:2′,3′-b][1,5] OXAZECIN-10-YL] CARBONYL]PIPERAZINE.]
1 to 100	1000 to 3000	–	–	COCCOc1ccccc1N1CCN(C(=O)[C@]2(Oc3csc(C(F)(F)F)c3)CCCN3C(=O)c4c(C(F)(F)F)ccnc4OCCCC/C=C/C[C@@H]32)CC1 [Compound 3, 1-[[(12aR)- 6,7,8,9,12,12a,13,14,15,16- DECAHYDRO-18-OXO-1- (TRIFLUOROMETHYL)- 13(S)-[[5- (TRIFLUOROMETHYL)-3- THIENYL]OXY]-18H- DIPYRIDO[1,2-e:2′,3′-b][1,5] OXAAZACYCLOTRIDECIN- 13-YL]CARBONYL]-4- [2-(2-METHOXYETHOXY) PHENYL]PIPERAZINE.]
1 to 100	101 to 500	–	–	N#CC1(c2ccccc2OCCCC2(C(=O)O)CCC2)CCN(C(=O)[C@]2(Oc3csc(C(F)(F)F)c3)CCCN3C(=O)c4c(C(F)(F)F)ccnc4OCCCCCC[C@@H]32)CC1 [Compound 13, 1-[3-[2-[4-CYANO-1- [[(11a)-7,8,9,10,11,11a,12,13, 14,15-DECAHYDRO-17- OXO-1- (TRIFLUOROMETHYL)- 12(S)-[[5- (TRIFLUOROMETHYL)-3- THIENYL]OXY]-6H,17H- DIPYRIDO[1,2-e:2′,3′-b][1,5] OXAAZACYCLODODECIN- 12YL]CARBONYL]-4- PIPERIDINYL]PHENOXY] PROPYL]CYCLOBUTANE- CARBOXYLIC ACID.]
1 to 100	501 to 1000	–	–	O=C1c2c(C(F)(F)F)ccnc2OCC/C=C/C[C@H]2N1CCC[C@@]2(Oc1csc(C(F)(F)F)c1)C(=O)N1CCN(c2ccccc2OCCO)CC1 [Compound 2, 1-[2-(2- HYDROXYETHOXY) PHENYL]-4-[[(10aR)- 6,7,10,10a,11,12,13,14- OCTAHYDRO-16- OXO-1- (TRIFLUOROMETHYL)- 11(S)-[[5- (TRIFLUOROMETHYL)-3- THIENYL]OXY]-16H- PYRIDO[1,2-e:2′,3′-b][1,5] OXAAZACYCLOUNDECIN- 11-YL]CARBONYL] PIPERAZINE.]
1 to 100	101 to 500	–	–	COCCOc1ccccc1N1CCN(C(=O)[C@]2(Oc3csc(C(F)(F)F)c3)CCCN3C(=O)c4c(C(F)(F)F)ccnc4OCC/C=C/C[C@@H]32)CC1 [Compound 1, 1-[2-(2- METHOXYETHOXY) PHENYL]-4-[[(10aR)- 6,7,10,10a,11,12,13,14- OCTAHYDRO-16- OXO-1- (TRIFLUOROMETHYL)- 11(S)-[[5- (TRIFLUOROMETHYL)- 3-THIENYL]OXY]-16H- DIPYRIDO[1,2-e:2′3′-b][1,5] OXOAAZACYCLOUNDECIN- 11-YL]CARBONYL] PIPERAZINE.]
1 to 100	–	–	–	O=C1c2c(C(F)(F)F)ccnc2OCCCCCCC[C@H]2N1CCC[C@@]2(Oc1csc(C(F)(F)F)c1)C(=O)N1CCN(c2ccccc2OCCO)CC1 [Compound 7, 1-[[(12aR)-6,7,8,9,10,11,12,12a, 13,14,15,16-DODECAHYDRO- 18-OXO-1- (TRIFLUOROMETHYL)- 13(S)-[[5- (TRIFLUOROMETHYL)-3- THIENYL]OXY]-18H- DIPYRIDO[1,2-e:2′,3′-b][1,5] OXAAZACYCLOTRIDECIN- 13-YL]CARBONYL]-4- [2-(2- HYDROXYETHOXY) PHENYL]PIPERAZINE.]
1 to 100	501 to 1000	–	–	O=C1c2c(C(F)(F)F)ccnc2OCCC/C=C\C[C@H]2N1CCC[C@@]2(Oc1csc(C(F)(F)F)c1)C(=O)N1CCN(c2ccccc2OCCO)CC1 [Compound 4, 1-[2-(2- HYDROXYETHOXY) PHENYL]-4-[[(11aR)- 7,8,11,11a,12,13,14,15- OCTAHYDRO-17-OXO-1- (TRIFLUOROMETHYL)- 12(S)-[[5- (TRIFLUOROMETHYL)-3- THIENYL]OXY]-6H,17H- DIPYRIDO[1,2-e:2′,3′-b][1,5] OXAAZACYCLODODECIN- 12-YL]CARBONYL] PIPERAZINE.]
–	–	20	642	O=C1c2c(C(F)(F)F)ccnc2OCCCC/C=C\C[C@H]2N1CCC[C@@]2(Oc1csc(C(F)(F)F)c1)C(=O)N1CCN(c2ccccc2OCCO)CC1 [Compound 6, 1-[[(12aR)- 6,7,8,9,12,12a,13,14,15,16- DECAHYDRO-18-OXO-1- (TRIFLUOROMETHYL)- 13-[[5- (TRIFLUOROMETHYL)-3- THIENYL]OXY]-18H- DIPYDRIDO[1,2-e:2′,3′-b][1,5] OXAAZACYCLOTRIDECIN- 13(S)-YL]CARBONYL]-4- [2-(2-HYDROXYETHOXY) PHENYL]PIPERAZINE.]
1 to 100	1000 to 3000	–	–	O=C1c2c(C(F)(F)F)ccnc2OCCCCCC[C@H]2N1CCC[C@@]2(Oc1csc(C(F)(F)F)c1)C(=O)N1CCN(c2ccccc2OCCO)CC1 [Compound 5, 1-[[(11aR)- 7,8,9,10,11,11a,12,13,14,15- DECAHYDRO-17-OXO-1- (TRIFLUOROMETHYL)- 12-[[5- (TRIFLUOROMETHYL)-3- THIENYL]OXY]-6H,17H- DIPYDRIDO[1,2-e:2′,3′-b][1,5] OXAAZACYCLODODECIN- 12(S)-YL]CARBONYL]-4- [2-(2-HYDROXYETHOXY) PHENYL]PIPERAZINE.]
